Data published in PMC5216056 (Nature Communications, 2017).
Values joined by “and” are separate entries in the source; they are usually repeats but may differ in a detail not shown here. Equal entries are not always repeated. “Also recorded” adds a separate entry of the source.

How the values were obtained:
[1] = system: C57BL6/J mice; test: Triad assay: hypothermia; type: in vivo, mouse
[2] = biological target: T1, NK3 (h) (Homo sapiens, UniProt P29371); test: CEREP panel; type: binding; conditions: 10 µM
T1 construct: CEREP (contract assay)
T1 sequence (P29371 1-465): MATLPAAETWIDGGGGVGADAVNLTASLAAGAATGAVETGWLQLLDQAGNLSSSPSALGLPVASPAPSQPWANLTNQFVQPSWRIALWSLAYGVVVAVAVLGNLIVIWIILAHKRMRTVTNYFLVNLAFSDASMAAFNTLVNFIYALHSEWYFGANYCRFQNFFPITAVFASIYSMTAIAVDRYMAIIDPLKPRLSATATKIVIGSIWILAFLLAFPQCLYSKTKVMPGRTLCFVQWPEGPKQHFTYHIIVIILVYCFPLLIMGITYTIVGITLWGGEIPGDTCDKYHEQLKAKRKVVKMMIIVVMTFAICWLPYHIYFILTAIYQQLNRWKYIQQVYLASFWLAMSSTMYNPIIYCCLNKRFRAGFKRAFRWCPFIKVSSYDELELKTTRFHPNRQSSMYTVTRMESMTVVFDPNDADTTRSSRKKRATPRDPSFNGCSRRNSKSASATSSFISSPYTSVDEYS

[3] = system: C57BL6/J mice; test: Triad assay: antinociception; type: in vivo, mouse
[4] = biological target: T2, AT2 (h) (Homo sapiens, UniProt P50052); test: CEREP panel; type: binding; conditions: 10 µM
T2 construct: CEREP
T2 sequence (P50052 1-363): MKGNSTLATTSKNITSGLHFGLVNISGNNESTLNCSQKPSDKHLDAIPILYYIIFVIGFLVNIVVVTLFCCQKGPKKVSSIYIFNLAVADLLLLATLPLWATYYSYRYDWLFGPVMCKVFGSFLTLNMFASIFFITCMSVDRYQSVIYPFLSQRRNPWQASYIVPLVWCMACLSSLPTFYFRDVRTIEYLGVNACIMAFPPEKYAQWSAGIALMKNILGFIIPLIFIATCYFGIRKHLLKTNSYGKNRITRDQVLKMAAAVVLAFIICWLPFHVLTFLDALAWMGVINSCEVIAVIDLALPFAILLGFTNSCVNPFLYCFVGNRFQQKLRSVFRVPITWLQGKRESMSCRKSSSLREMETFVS

[5] = biological target: T3, A2A (h) (Homo sapiens, UniProt P29274); test: CEREP panel; type: binding; conditions: 10 µM
T3 construct: CEREP

[6] = biological target: T4, NOP (ORL1) (h) (Homo sapiens, UniProt P41146); test: CEREP panel; type: binding; conditions: 10 µM
T4 construct: CEREP (contract assay)

[7] = biological target: T5, NTS1 (NT1) (h) (Homo sapiens, UniProt P30989); test: CEREP panel; type: binding; conditions: 10 µM
T5 construct: CEREP (contract assay)

[8] = biological target: T6, NK1 (h) (Homo sapiens, UniProt P25103); test: CEREP panel; type: binding; conditions: 10 µM
T6 construct: CEREP (contract assay)

[9] = biological target: T7, BZD (peripheral) (Rattus norvegicus, UniProt P16257); test: CEREP panel; type: binding; conditions: 10 µM
T7 construct: CEREP

[10] = system: BB; test: CEREP panel; type: binding; conditions: 10 µM
[11] = biological target: T8, B2 (h) (Homo sapiens, UniProt P30411); test: CEREP panel; type: binding; conditions: 10 µM
T8 construct: CEREP
T8 sequence (P30411 1-391): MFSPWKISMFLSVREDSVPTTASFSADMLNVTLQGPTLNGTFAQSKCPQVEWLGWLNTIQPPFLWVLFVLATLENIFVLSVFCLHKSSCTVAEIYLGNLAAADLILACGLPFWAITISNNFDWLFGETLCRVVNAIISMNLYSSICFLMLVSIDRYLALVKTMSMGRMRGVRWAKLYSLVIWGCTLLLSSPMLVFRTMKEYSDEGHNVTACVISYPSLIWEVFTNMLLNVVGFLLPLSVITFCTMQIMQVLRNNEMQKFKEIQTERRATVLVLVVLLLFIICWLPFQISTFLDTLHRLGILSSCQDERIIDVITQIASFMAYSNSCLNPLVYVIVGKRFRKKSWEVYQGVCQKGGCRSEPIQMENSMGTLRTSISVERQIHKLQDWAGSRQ

[12] = system: Ca2+ channel (verapamil site); test: CEREP panel; type: binding; conditions: 10 µM
[13] = biological target: T9, MC4 (h) (Homo sapiens, UniProt P32245); test: CEREP panel; type: binding; conditions: 10 µM
T9 construct: CEREP (contract assay)

[14] = biological target: T10, mCB2R (Mus musculus, UniProt P47936); test: Operational analysis of biased signalling; conditions: for ΔLogR GTPγS / ΔLogR cAMP / ΔLogR β-AR: reference CP55940; for RE GTPγS / RE cAMP / RE β-AR: relative effectiveness
[15] = biological target: T11, beta 2 (h) (Homo sapiens, UniProt P07550); test: CEREP panel; type: binding; conditions: 10 µM
T11 construct: CEREP

[16] = system: PDGF; test: CEREP panel; type: binding; conditions: 10 µM
[17] = system: C57BL6/J mice; test: Triad assay: catalepsy; type: in vivo, mouse
[18] = biological target: T10, mCB2R; test: [35S]GTPγS assay; type: biochemical; design: from tissue; host or cells: spleen of male C57BL/6J mice
[19] = physchem; conditions: pH 6.5, aqueous buffer, thermodynamic from solid
[20] = in vitro; conditions: male, C57BL/6J, mouse, microsomes, pH 7.4
[21] = biological target: T12, sst4 (h) (Homo sapiens, UniProt P31391); test: CEREP panel; type: binding
T12 construct: CEREP (contract assay)

[22] = biological target: T13, 5-HT2A (h) (Homo sapiens, UniProt P28223); test: CEREP panel; type: binding
T13 construct: CEREP (contract assay)

[23] = biological target: T14, D1 (h) (Homo sapiens, UniProt P21728); test: CEREP panel; type: binding
T14 construct: CEREP (contract assay)

[24] = biological target: human P-gp (Homo sapiens, UniProt P08183); conditions: efflux ratio
[25] = 1-100 mg kg^−1 i.p., cumulative, mice

T10 sequence (P47936 whole entry): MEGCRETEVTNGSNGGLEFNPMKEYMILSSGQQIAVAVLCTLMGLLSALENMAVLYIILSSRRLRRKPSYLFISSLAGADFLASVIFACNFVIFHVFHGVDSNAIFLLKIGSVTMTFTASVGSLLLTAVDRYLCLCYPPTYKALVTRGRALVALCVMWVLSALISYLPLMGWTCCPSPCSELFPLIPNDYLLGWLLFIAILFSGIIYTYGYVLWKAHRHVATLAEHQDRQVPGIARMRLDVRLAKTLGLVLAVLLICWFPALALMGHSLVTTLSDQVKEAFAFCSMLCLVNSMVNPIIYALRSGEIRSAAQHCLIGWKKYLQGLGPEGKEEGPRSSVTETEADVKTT
T13 sequence (P28223 whole entry): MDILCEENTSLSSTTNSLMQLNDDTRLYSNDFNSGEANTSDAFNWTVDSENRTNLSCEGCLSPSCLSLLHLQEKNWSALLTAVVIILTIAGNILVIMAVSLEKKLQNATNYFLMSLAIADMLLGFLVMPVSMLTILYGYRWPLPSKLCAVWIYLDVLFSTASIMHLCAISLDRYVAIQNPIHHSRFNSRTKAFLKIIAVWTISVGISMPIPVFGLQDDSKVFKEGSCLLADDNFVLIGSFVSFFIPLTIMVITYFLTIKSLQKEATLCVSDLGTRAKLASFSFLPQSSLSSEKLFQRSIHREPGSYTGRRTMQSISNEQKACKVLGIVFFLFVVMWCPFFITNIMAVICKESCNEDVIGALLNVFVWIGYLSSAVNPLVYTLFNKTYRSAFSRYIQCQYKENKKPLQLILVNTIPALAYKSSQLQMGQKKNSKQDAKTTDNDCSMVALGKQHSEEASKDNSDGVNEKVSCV
T11 sequence (P07550 whole entry): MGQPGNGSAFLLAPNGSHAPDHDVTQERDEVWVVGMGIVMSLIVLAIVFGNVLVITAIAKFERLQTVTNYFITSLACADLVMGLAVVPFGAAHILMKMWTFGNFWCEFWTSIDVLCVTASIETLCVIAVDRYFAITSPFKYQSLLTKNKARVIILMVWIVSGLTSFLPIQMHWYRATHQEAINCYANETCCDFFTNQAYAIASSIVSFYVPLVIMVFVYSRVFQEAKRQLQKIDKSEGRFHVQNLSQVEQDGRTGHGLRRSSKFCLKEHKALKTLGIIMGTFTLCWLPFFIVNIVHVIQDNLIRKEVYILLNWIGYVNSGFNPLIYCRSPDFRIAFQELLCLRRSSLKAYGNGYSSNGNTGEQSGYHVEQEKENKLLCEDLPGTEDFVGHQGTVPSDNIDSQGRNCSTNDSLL
T12 sequence (P31391 whole entry): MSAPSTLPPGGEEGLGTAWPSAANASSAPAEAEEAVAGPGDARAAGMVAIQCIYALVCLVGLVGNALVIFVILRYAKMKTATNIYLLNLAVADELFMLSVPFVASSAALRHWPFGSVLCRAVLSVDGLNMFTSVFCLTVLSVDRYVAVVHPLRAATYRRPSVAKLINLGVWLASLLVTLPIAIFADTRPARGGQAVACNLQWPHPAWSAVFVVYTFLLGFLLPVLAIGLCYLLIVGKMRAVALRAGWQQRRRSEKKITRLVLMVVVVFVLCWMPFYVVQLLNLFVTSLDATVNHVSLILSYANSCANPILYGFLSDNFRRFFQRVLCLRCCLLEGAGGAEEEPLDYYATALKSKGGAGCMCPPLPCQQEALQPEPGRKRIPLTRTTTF
T6 sequence (P25103 whole entry): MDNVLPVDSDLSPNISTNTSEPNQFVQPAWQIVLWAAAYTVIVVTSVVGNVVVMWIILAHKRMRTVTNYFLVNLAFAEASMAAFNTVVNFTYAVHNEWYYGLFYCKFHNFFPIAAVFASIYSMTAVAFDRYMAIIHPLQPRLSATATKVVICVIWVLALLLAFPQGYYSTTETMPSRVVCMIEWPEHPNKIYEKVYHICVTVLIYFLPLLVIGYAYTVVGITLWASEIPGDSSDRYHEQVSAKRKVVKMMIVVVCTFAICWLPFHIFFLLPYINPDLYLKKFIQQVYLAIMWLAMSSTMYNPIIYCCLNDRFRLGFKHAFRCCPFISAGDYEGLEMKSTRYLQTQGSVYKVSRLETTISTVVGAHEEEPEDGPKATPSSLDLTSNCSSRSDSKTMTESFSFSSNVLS
T9 sequence (P32245 whole entry): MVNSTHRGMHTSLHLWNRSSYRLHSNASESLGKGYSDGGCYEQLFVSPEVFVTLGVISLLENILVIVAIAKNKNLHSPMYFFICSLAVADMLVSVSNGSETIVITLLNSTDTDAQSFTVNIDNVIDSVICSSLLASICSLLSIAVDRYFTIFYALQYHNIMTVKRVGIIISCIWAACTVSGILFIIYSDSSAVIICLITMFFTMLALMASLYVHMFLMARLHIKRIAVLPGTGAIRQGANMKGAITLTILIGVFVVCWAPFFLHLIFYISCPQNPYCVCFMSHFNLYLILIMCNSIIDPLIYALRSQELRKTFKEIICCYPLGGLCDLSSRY
T14 sequence (P21728 whole entry): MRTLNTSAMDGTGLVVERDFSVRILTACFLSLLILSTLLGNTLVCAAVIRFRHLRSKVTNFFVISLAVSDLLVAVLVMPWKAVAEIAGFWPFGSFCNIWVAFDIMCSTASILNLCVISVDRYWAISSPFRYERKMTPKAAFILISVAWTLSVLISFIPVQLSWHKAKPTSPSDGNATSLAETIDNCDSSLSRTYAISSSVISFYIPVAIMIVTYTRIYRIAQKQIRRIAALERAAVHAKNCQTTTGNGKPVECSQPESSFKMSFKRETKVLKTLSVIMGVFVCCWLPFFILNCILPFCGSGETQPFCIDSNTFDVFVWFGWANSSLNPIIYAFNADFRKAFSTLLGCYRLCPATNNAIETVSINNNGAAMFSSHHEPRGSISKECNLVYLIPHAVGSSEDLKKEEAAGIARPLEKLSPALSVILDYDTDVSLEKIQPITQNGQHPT
T5 sequence (P30989 whole entry): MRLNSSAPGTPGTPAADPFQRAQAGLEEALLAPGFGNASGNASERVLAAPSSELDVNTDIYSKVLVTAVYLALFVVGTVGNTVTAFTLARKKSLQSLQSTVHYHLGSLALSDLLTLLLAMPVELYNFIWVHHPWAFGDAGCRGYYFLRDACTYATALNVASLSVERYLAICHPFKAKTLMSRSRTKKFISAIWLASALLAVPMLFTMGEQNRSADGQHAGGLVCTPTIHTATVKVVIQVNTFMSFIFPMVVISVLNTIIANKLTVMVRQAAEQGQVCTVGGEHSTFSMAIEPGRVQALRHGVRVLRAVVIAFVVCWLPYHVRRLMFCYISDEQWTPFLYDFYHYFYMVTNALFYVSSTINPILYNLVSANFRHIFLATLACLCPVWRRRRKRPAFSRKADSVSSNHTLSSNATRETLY
T7 sequence (P16257 whole entry): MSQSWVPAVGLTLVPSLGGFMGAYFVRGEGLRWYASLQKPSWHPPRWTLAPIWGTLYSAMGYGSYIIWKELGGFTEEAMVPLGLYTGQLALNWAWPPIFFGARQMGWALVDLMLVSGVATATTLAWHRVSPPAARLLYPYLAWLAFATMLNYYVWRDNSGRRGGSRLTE
Chain of human P-gp (P08183 whole entry): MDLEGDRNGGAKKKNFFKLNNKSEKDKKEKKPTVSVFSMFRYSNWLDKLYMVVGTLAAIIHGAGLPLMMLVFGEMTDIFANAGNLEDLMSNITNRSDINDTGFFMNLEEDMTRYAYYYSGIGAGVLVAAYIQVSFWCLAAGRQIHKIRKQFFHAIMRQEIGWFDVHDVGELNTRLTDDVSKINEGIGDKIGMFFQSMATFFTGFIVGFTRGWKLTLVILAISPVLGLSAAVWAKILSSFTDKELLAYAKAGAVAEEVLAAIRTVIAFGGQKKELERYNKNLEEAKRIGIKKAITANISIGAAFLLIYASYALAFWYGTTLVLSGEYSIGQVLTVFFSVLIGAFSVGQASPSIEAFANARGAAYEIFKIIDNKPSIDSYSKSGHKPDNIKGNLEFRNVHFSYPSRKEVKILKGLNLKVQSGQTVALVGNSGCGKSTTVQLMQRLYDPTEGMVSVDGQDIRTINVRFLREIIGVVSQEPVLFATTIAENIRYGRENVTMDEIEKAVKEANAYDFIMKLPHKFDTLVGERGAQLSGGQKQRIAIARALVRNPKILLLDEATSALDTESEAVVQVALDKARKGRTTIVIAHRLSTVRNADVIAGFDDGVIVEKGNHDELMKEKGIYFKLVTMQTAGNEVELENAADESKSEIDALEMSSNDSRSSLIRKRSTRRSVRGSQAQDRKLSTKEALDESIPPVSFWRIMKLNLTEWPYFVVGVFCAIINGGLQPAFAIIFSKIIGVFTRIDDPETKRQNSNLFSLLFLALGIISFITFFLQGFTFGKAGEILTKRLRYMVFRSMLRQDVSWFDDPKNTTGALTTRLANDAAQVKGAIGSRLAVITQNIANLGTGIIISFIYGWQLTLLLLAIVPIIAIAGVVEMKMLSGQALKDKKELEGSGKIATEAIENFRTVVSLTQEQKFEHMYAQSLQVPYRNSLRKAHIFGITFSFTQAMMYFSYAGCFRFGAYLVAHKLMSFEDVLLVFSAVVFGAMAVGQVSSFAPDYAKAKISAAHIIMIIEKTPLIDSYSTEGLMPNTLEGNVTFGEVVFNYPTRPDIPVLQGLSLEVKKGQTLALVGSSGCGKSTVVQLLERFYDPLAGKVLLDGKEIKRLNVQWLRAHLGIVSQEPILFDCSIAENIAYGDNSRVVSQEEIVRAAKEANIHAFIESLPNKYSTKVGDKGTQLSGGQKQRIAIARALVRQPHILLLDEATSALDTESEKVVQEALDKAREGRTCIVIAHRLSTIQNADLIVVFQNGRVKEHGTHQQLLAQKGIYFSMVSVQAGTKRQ

| Compound | GTPγS-cAMP bias factor (BF) [14] | GTPγS-cAMP ΔΔlogR [14] | LogR GTPγS [14] | LogR cAMP [14] | LogR β-AR [14] | β-AR-GTPγS bias factor (BF) [14] | β-AR-GTPγS ΔΔlogR [14] | β-AR-cAMP bias factor (BF) [14] | β-AR-cAMP ΔΔlogR [14] | ΔLogR GTPγS [14] | ΔLogR cAMP [14] | ΔLogR β-AR [14] | RE GTPγS [14] | RE cAMP [14] | RE β-AR [14] | % inhibition beta 2 (h) [15] | solubility kinetic [19] | microsomal CLint [20] | Plasma protein binding mouse | further results |
| --- | --- | --- | --- | --- | --- | --- | --- | --- | --- | --- | --- | --- | --- | --- | --- | --- | --- | --- | --- | --- |
| CCCC(C)(C)c1ccc2c(c1)OC(C)(C)[C@@H]1CC=C(C)C[C@@H]21 [JWH133] | 50.9 | 1.71 ± 0.18 | 7.07 ± 0.05 | 8.07 ± 0.09 | 6.57 ± 0.12 | 0.21 | -0.67 ± 0.15 | 10.9 | 1.04 ± 0.21 | -0.75 ± 0.07 | -2.45 ± 0.17 | -1.42 ± 0.13 | 0.18 | 0.004 | 0.04 | -15% | – | – | – | hypothermia, cannabimimetic effect [1, 25]: did not produce detectable; also recorded: lacked appreciable pharmacological effects; % inhibition NK3 (h) [2]: -1%; antinociception, cannabimimetic effect [3, 25]: did not produce detectable; also recorded: lacked appreciable pharmacological effects; % inhibition AT2 (h) [4]: 0%; % inhibition A2A (h) [5]: 4%; % inhibition NOP (ORL1) (h) [6]: -5%; % inhibition NTS1 (NT1) (h) [7]: 0%; % inhibition NK1 (h) [8]: 13%; % inhibition BZD (peripheral) [9]: -1%; % inhibition BB [10]: 0%; % inhibition B2 (h) [11]: -2%; % inhibition Ca2+ channel (verapamil site) [12]: 1%; % inhibition MC4 (h) [13]: -10%; % inhibition PDGF [16]: -12%; catalepsy, cannabimimetic effect [17, 25]: did not produce detectable; also recorded: lacked appreciable pharmacological effects; pEC50 ± SEM GTPγS mCB2R [18]: 7.03 ± 0.14; Emax ± SEM GTPγS mCB2R ([18]; normalized to 10 µM CP55940): 103 ± 7% |
| Cc1c(C(=O)NN2CCCCC2)nn(-c2ccc(Cl)cc2Cl)c1-c1ccc(Cl)cc1 [SR141716A] | – | – | – | – | – | – | – | – | – | – | – | – | – | – | – | – | < 0.733 µg/mL and < 1.6 µM | 109 µL/min/mg | – | antagonism of HU210-induced hypothermia ([1]; mouse, in vivo): attenuated; also recorded: significantly antagonized; antagonism of HU210-induced antinociception ([3]; mouse, in vivo): attenuated; also recorded: significantly antagonized; antagonism of HU210-induced catalepsy ([17]; mouse, in vivo): attenuated; also recorded: significantly antagonized |
| CCCCC/C=C\C/C=C\C/C=C\C/C=C\CCCC(=O)NCCO [Anandamide, N-arachidonoylethanolamine] | – | – | – | – | – | – | – | – | – | – | – | – | – | – | – | – | < 1.1 µg/mL and < 3.2 µM | 222 µL/min/mg | – | – |
| Cc1c(C(=O)c2cccc3ccccc23)c2cccc3c2n1[C@H](CN1CCOCC1)CO3 [WIN55212-2] | – | – | – | – | – | – | – | – | – | – | – | – | – | – | – | – | – | – | 1.0 %free | % inhibition sst4 (h) ([21]; 10 µM): 64% |
| CCCCCCC(C)(C)c1ccc([C@@H]2C[C@H](O)CC[C@H]2CCCO)c(O)c1 [CP55940] | 1 | 0 ± 0.21 | 7.82 ± 0.05 | 10.52 ± 0.14 | 8.0 ± 0.06 | 1 | 0 ± 0.10 | 1 | 0 ± 0.21 | 0 ± 0.07 | 0 ± 0.20 | 0 ± 0.08 | 1.00 | 1.00 | 1.00 | – | – | 172 µL/min/mg | – | inhibition at 10 µM [22]: 95%; inhibition at 10 µM [23]: 77%; inhibition at 10 µM [21]: 63%; EC50 [18]: 16.2 nM; Emax ([18]; read-out: Emax ± SEM GTPγS mCB2R): 102 ± 1% |
| COc1ccc(C(=O)c2c(C)n(CCN3CCOCC3)c3cc(I)ccc23)cc1 [AM630] | – | – | – | – | – | – | – | – | – | – | – | – | – | – | – | 11% | – | – | 0.4 %free | % inhibition 5-HT2A (h) ([22]; 10 µM): 70%; P-gp (ER) human [24]: 1.3 |
